“Also recorded” adds a separate entry of the source.
Legend:
[1] = system: A1N4 human breast epithelial cells; test: Disruption of breast epithelial cell adhesion, E-cadherin immunostaining; assay type: cell-based; details: 500 μg/mL, 48 hours
Method: A1N4 human breast epithelial cells (kindly provided by Martha Stampfer, Lawrence Berkeley Laboratory, Berkeley, Calif.) were plated on glass coverslips and cultured in F12/DME containing 0.5% FCS and 10 ng/mL EGF for 24 hours. Fresh medium containing the cyclic peptides (final concentration 500 μg/mL media) N-Ac-CHAVC-NH2 (SEQ ID NO:10) or N-Ac-CHGVC-NH2 (SEQ ID NO:20) was then added. Following 24 hours of culture in the presence of the peptides, the medium was removed and fresh medium containing the peptides was added. The cells were fixed 24 hours later with cold methanol and stored in phosphate buffered saline (PBS).
Coverslips were blocked for 1 hour in 3% ovalbumin/PBS and incubated for a further 1 hour in the presence of 1 μg/mL mouse anti-E-cadherin antibody (Zymed, Gaithersburg, Md.). Primary and secondary antibodies were diluted in PBS containing 6% normal goat serum. Following incubation in the primary antibody, coverslips were washed 3 times for 5 minutes each in PBS and incubated for 1 hour with goat anti-mouse conjugated to fluorescein (Kiekegard and Perry, South San Francisco, Calif.) diluted 1:100. Following a further wash in PBS (3×5 minutes) coverslips were mounted in Vectashield (Vector Labs, Burlingame, Calif.) and viewed with a Zeiss infinity corrected microscope.

N-CAM = target: T1, N-CAM (Homo sapiens, UniProt P13591); test: Neurite outgrowth of mouse cerebellar neurons on 3T3 cells expressing N-CAM (Example 2); assay type: cell-based; details: 500 μg/mL
T1 construct: expressed in transfected cells; host or cells: 3T3 cells
T1 sequence (P13591 20-858, species assumed): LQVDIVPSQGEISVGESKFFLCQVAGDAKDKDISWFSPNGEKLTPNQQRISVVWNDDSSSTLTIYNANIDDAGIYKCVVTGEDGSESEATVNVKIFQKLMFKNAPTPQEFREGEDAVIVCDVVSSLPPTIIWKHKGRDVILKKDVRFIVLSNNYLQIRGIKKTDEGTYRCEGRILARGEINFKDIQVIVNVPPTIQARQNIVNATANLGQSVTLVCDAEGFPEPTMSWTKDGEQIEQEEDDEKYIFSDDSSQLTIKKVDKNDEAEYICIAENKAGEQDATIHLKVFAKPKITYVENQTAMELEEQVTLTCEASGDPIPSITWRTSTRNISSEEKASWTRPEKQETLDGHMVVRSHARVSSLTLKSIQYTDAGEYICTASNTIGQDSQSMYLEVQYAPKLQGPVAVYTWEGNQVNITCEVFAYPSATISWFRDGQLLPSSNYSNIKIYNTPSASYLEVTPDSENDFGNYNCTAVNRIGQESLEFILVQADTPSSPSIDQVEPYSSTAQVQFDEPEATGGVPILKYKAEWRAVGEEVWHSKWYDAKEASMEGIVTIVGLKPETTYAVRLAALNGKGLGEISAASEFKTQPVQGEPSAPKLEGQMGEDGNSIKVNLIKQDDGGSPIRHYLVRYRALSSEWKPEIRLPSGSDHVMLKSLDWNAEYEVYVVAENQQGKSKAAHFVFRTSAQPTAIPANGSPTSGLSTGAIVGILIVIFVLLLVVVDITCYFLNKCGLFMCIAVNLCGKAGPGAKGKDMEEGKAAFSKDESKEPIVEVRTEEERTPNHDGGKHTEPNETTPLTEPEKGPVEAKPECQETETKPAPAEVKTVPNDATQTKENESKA

CC(=O)N[C@H]1CSSC[C@@H](C(N)=O)NC(=O)[C@H](C(C)C)NC(=O)[C@H](C)NC(=O)[C@H](Cc2c[nH]cn2)NC1=O [N-Ac-CHAVC-NH2, N-Ac-Cys-His-Ala-Val-Cys-NH2]
E-cadherin staining and monolayer of A1N4 cells [1]: reduced E-cadherin staining with a stitched appearance; also recorded: distribution of E-cadherin is non-contiguous
effect on neurite outgrowth on 3T3 cells expressing N-CAM (N-CAM): did not inhibit neurite outgrowth
